The values that follow come from ChEMBL document CHEMBL1140426, “First structure-activity relationship study on dopamine D3 receptor agents with N-[4-(4-arylpiperazin-1-yl)butyl]arylcarboxamide structure” (J Med Chem, 2005).

In general, Ki refers to the dissociation constant of the complex between target and ligand, obtained from inhibition or displacement. Read a high Ki as weaker binding. The term EC50 denotes the midpoint of the concentration-response curve. The low end stands for a more potent agent, the high end for a less potent agent.

The target of experiment [1] is T1, D(3) dopamine receptor (Homo sapiens, UniProt P35462). Kind of experiment: biochemical.
T1 sequence (P35462 whole entry): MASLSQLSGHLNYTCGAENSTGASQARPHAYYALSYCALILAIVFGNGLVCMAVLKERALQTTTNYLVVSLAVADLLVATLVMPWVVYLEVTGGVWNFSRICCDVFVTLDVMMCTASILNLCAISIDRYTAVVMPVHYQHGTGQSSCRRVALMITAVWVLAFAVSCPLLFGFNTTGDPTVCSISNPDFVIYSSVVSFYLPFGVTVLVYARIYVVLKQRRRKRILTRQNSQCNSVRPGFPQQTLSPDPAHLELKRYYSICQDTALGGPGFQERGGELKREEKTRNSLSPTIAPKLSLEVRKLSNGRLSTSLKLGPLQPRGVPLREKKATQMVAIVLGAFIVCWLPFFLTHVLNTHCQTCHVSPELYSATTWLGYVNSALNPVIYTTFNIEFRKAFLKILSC
Description: Displacement of [3H]spiroperidol from cloned human dopamine receptor D3 in CHO cell membrane
Experiment [2] has as its target T1, D(3) dopamine receptor.
Description: Intrinsic activity against dopamine receptor D3 by Eu-GTP binding assay

With `O=C(NCCCCN1CCN(c2cccc(Cl)c2Cl)CC1)[C@H]1CC[C@@H](c2ccccc2)CC1`, the affinity at D(3) dopamine receptor [1], expressed as Ki, was 10.6 nM. Also, at D(3) dopamine receptor [2], the response was half-maximal at 631 nM (EC50).
Compound `O=C(NCCCCN1CCN(c2cccc(Cl)c2Cl)CC1)c1ccc(-c2ccccc2)cc1` returned a Ki on D(3) dopamine receptor [1] of 1.98 nM.
On to `COc1ccccc1N1CCN(CCCCNC(=O)c2cccc3ccccc23)CC1`, for which the Ki at D(3) dopamine receptor [1] worked out at 32.6 nM.
In the case of `COc1ccccc1N1CCN(CCCCNC(=O)[C@H]2CC[C@H](c3ccccc3)CC2)CC1`, the Ki at D(3) dopamine receptor [1] stood at 3.4 nM.
The compound `COc1ccccc1N1CCN(CCCCNC(=O)[C@H]2CC[C@@H](c3ccccc3)CC2)CC1` gave a Ki on D(3) dopamine receptor [1] of 20.6 nM. Further, the 50% effective concentration (EC50) on D(3) dopamine receptor [2] is 1820 nM.
Consider `O=C(NCCCCN1CCN(c2cccc(Cl)c2Cl)CC1)c1ccc2ccccc2c1`, for which the inhibition constant Ki on D(3) dopamine receptor [1] stood at 7.9 nM.
As to `O=C(NCCCCN1CCN(c2cccc(Cl)c2Cl)CC1)c1cccc2ccccc12`, at D(3) dopamine receptor [1], the inhibition constant Ki came to 6.9 nM. Also, it took 60.3 nM to reach a half-maximal effect on D(3) dopamine receptor [2] (EC50).
`COc1ccccc1N1CCN(CCCCNC(=O)c2ccc(-c3ccccc3)cc2)CC1` had a Ki on D(3) dopamine receptor [1] of 0.3 nM.
Take `COc1ccccc1N1CCN(CCCCNC(=O)c2ccc3c(c2)Cc2ccccc2-3)CC1`: the Ki at D(3) dopamine receptor [1] came out at 0.52 nM. This compound also gave an EC50 on D(3) dopamine receptor [2] of 49 nM.
`O=C(NCCCCN1CCN(c2cccc(Cl)c2Cl)CC1)[C@H]1CC[C@H](c2ccccc2)CC1` displayed a Ki on D(3) dopamine receptor [1] of 22.8 nM.
`O=C(NCCCCN1CCN(c2cccc(Cl)c2Cl)CC1)c1ccccc1` showed a Ki on D(3) dopamine receptor [1] of 11.9 nM. Moreover, at D(3) dopamine receptor [2], the midpoint of the response, the EC50, lay at 209 nM.
